Data from publication PMC5218480 (PLoS ONE, 2017).

Tested on: MV-4-11 cells
Test: Gene expression microarray analysis (Affymetrix PrimeView) and GSEA
Assay type: cell-based, human
Set-up: RFU PODN (11730768_x_at) / Fold change /veh PODN (11730768_x_at) / RFU LINC00158 (11744669_a_at) / Fold change /veh LINC00158 (11744669_a_at) / RFU DUSP10 (11751237_a_at) / Fold change /veh DUSP10 (11751237_a_at) / RFU ID3 (11757404_x_at) / Fold change /veh ID3 (11757404_x_at) / RFU PLEKHG5 (11737974_s_at) / Fold change /veh PLEKHG5 (11737974_s_at) / RFU LRRC4B (11730491_at) / Fold change /veh LRRC4B (11730491_at) / RFU GIMAP4 (11747438_a_at) / Fold change /veh GIMAP4 (11747438_a_at) / RFU KRT8 (11758183_x_at) / Fold change /veh KRT8 (11758183_x_at) / RFU CNN1 (11734310_a_at) / Fold change /veh CNN1 (11734310_a_at) / RFU VPS37D (11726825_at) / Fold change /veh VPS37D (11726825_at) / RFU C10orf10 (11716522_x_at) / Fold change /veh C10orf10 (11716522_x_at) / RFU KIR2DL2 /// KIR2DL4 /// KIR2DL5A /// KIR2DL5B /// KIR2DS1 /// KIR2DS2 /// KIR2DS3 /// KIR2DS4 /// KIR3DL3 /// KIR3DL3 /// KIR3DS1 (11738374_at) / Fold change /veh KIR2DL2 /// KIR2DL4 /// KIR2DL5A /// KIR2DL5B /// KIR2DS1 /// KIR2DS2 /// KIR2DS3 /// KIR2DS4 /// KIR3DL3 /// KIR3DL3 /// KIR3DS1 (11738374_at) / RFU C1QL1 (11718748_at) / Fold change /veh C1QL1 (11718748_at) / RFU TMPRSS4 (11747572_a_at) / Fold change /veh TMPRSS4 (11747572_a_at) / RFU HAMP (11756126_x_at) / Fold change /veh HAMP (11756126_x_at) / RFU RNFT2 (11725882_a_at) / Fold change /veh RNFT2 (11725882_a_at) / RFU NR4A2 (11747474_a_at) / Fold change /veh NR4A2 (11747474_a_at) / RFU ABCC12 (11746883_a_at) / Fold change /veh ABCC12 (11746883_a_at) / RFU TMEM136 (11760407_x_at) / Fold change /veh TMEM136 (11760407_x_at) / RFU CLDN22 /// WWC2 (11732394_at) / Fold change /veh CLDN22 /// WWC2 (11732394_at) / RFU HLA-DPB1 (11760878_x_at) / Fold change /veh HLA-DPB1 (11760878_x_at) / RFU SPINT1 (11716480_a_at) / Fold change /veh SPINT1 (11716480_a_at) / RFU GAP43 (11754022_s_at) / Fold change /veh GAP43 (11754022_s_at) / RFU A4GNT (11735810_at) / Fold change /veh A4GNT (11735810_at) / RFU PRB3 (11715151_x_at) / Fold change /veh PRB3 (11715151_x_at) / RFU TUBB4B (11761932_at) / Fold change /veh TUBB4B (11761932_at) / RFU CAPN14 (11732068_a_at) / Fold change /veh CAPN14 (11732068_a_at) / RFU TMCC2 (11721928_a_at) / Fold change /veh TMCC2 (11721928_a_at) / RFU IRGQ (11745062_a_at) / Fold change /veh IRGQ (11745062_a_at) / RFU FAM174B (11720279_a_at) / Fold change /veh FAM174B (11720279_a_at) / RFU TMPRSS4 (11748680_a_at) / Fold change /veh TMPRSS4 (11748680_a_at) / RFU FAM212B (11763350_a_at) / Fold change /veh FAM212B (11763350_a_at) / RFU PLEKHG5 (11743358_a_at) / Fold change /veh PLEKHG5 (11743358_a_at) / RFU ZSCAN30 (11745921_a_at) / Fold change /veh ZSCAN30 (11745921_a_at) / RFU CMKLR1 (11741424_a_at) / Fold change /veh CMKLR1 (11741424_a_at) / RFU LOC101060620 /// MAPK8IP1 (11723275_at) / Fold change /veh LOC101060620 /// MAPK8IP1 (11723275_at) / RFU SPTSSB (11747773_x_at) / Fold change /veh SPTSSB (11747773_x_at) / RFU PRSS12 (11739890_at) / Fold change /veh PRSS12 (11739890_at) / RFU BIN1 (11741810_x_at) / Fold change /veh BIN1 (11741810_x_at) / RFU WNT11 (11732464_a_at) / Fold change /veh WNT11 (11732464_a_at) / RFU C10orf10 (11716521_a_at) / Fold change /veh C10orf10 (11716521_a_at) / RFU C5orf56 (11738089_at) / Fold change /veh C5orf56 (11738089_at) / RFU CYB561 (11721691_x_at) / Fold change /veh CYB561 (11721691_x_at) / RFU ANKRD19P (11752326_a_at) / Fold change /veh ANKRD19P (11752326_a_at) / RFU OR2T12 /// OR2T33 /// OR2T8 (11738714_s_at) / Fold change /veh OR2T12 /// OR2T33 /// OR2T8 (11738714_s_at) / RFU VCAN (11748164_a_at) / Fold change /veh VCAN (11748164_a_at) / RFU JSRP1 (11732532_at) / Fold change /veh JSRP1 (11732532_at) / RFU KRTAP10-11 (11738290_x_at) / Fold change /veh KRTAP10-11 (11738290_x_at) / RFU MYO3A (11730013_a_at) / Fold change /veh MYO3A (11730013_a_at) / RFU EBF3 (11725865_a_at) / Fold change /veh EBF3 (11725865_a_at) / RFU CAMK2N1 (11719241_x_at) / Fold change /veh CAMK2N1 (11719241_x_at) / RFU C5orf56 (11738088_a_at) / Fold change /veh C5orf56 (11738088_a_at) / RFU OLFML3 (11715873_a_at) / Fold change /veh OLFML3 (11715873_a_at) / RFU LOC100653217 /// NTM (11731650_a_at) / Fold change /veh LOC100653217 /// NTM (11731650_a_at) / RFU MAPK11 (11762145_a_at) / Fold change /veh MAPK11 (11762145_a_at) / RFU FIZ1 (11724087_x_at) / Fold change /veh FIZ1 (11724087_x_at) / RFU OASL (11726364_x_at) / Fold change /veh OASL (11726364_x_at) / RFU SOX15 (11748057_x_at) / Fold change /veh SOX15 (11748057_x_at) / RFU CD79A (11719716_a_at) / Fold change /veh CD79A (11719716_a_at) / RFU HIST1H1D (11736915_at) / Fold change /veh HIST1H1D (11736915_at) / RFU CASKIN2 (11723855_a_at) / Fold change /veh CASKIN2 (11723855_a_at) / RFU LOC730098 (11760151_x_at) / Fold change /veh LOC730098 (11760151_x_at) / RFU OR4N2 (11742367_at) / Fold change /veh OR4N2 (11742367_at) / RFU PRRT2 (11749266_a_at) / Fold change /veh PRRT2 (11749266_a_at) / RFU SNX32 (11753110_a_at) / Fold change /veh SNX32 (11753110_a_at) / RFU CDHR5 (11726645_a_at) / Fold change /veh CDHR5 (11726645_a_at) / RFU RCAN1 (11760418_a_at) / Fold change /veh RCAN1 (11760418_a_at) / RFU FAM167A (11723789_a_at) / Fold change /veh FAM167A (11723789_a_at) / RFU FAM26E (11764081_at) / Fold change /veh FAM26E (11764081_at) / RFU ISYNA1 (11749810_s_at) / Fold change /veh ISYNA1 (11749810_s_at) / RFU ACY1 (11761880_at) / Fold change /veh ACY1 (11761880_at) / RFU 11764098_at / Fold change /veh 11764098_at / RFU SAMD14 (11745864_x_at) / Fold change /veh SAMD14 (11745864_x_at) / RFU NPB (11741838_a_at) / Fold change /veh NPB (11741838_a_at) / RFU TMPRSS6 (11731388_a_at) / Fold change /veh TMPRSS6 (11731388_a_at) / RFU KRTAP10-2 (11738614_at) / Fold change /veh KRTAP10-2 (11738614_at) / RFU ARHGAP8 /// PRR5-ARHGAP8 (11727945_x_at) / Fold change /veh ARHGAP8 /// PRR5-ARHGAP8 (11727945_x_at) / RFU KRTAP5-7 /// NADSYN1 (11734609_at) / Fold change /veh KRTAP5-7 /// NADSYN1 (11734609_at) / RFU RASL12 (11751679_a_at) / Fold change /veh RASL12 (11751679_a_at) / RFU CDKN2B (11736163_a_at) / Fold change /veh CDKN2B (11736163_a_at) / RFU PRF1 (11729649_at) / Fold change /veh PRF1 (11729649_at) / RFU, ZNF638 /// ZNF638-IT1 / Fold change vs veh, ZNF638 /// ZNF638-IT1 / RFU, PANK3 / Fold change vs veh, PANK3 / RFU, SH3YL1 / Fold change vs veh, SH3YL1 / RFU, ZEB2 / Fold change vs veh, ZEB2 / RFU, NRIP1 / Fold change vs veh, NRIP1 / RFU, PTTG1IP / Fold change vs veh, PTTG1IP / RFU, CAPN2 / Fold change vs veh, CAPN2 / RFU, MED14 / Fold change vs veh, MED14 / RFU, SNORA58 / Fold change vs veh, SNORA58 / RFU, C1orf63 / Fold change vs veh, C1orf63 / RFU, LRRFIP1 / Fold change vs veh, LRRFIP1 / RFU, NDUFAF7 / Fold change vs veh, NDUFAF7 / RFU, SLC12A2 / Fold change vs veh, SLC12A2 / RFU, IBTK / Fold change vs veh, IBTK / RFU, ESF1 / Fold change vs veh, ESF1 / Fold change vs veh, TMEM50B / RFU, TAOK1 / Fold change vs veh, TAOK1 / RFU, ACBD3 / Fold change vs veh, ACBD3 / RFU, TMA16 / Fold change vs veh, TMA16 / RFU, RWDD3 / Fold change vs veh, RWDD3 / RFU, BCAT1 / Fold change vs veh, BCAT1 / RFU, EDEM3 / Fold change vs veh, EDEM3 / RFU, TMEM33 / Fold change vs veh, TMEM33 / RFU, WDR75 / Fold change vs veh, WDR75 / RFU, AHCTF1 / Fold change vs veh, AHCTF1 / RFU, TFRC / Fold change vs veh, TFRC / RFU, ZDHHC17 / Fold change vs veh, ZDHHC17 / RFU, NOM1 / Fold change vs veh, NOM1 / RFU, ARL8B / Fold change vs veh, ARL8B / RFU, ZBTB11 / Fold change vs veh, ZBTB11 / RFU, TAMM41 / Fold change vs veh, TAMM41 / RFU, KIAA1704 /// LOC100996395 / Fold change vs veh, KIAA1704 /// LOC100996395 / RFU, ING1 / Fold change vs veh, ING1 / RFU, TRMT61B / Fold change vs veh, TRMT61B / RFU, FUBP3 / Fold change vs veh, FUBP3 / RFU, TP53 / Fold change vs veh, TP53 / RFU, TNKS2 / Fold change vs veh, TNKS2 / RFU, ZFP14 / Fold change vs veh, ZFP14 / RFU, ACTR2 / Fold change vs veh, ACTR2 / RFU, PPP3R1 / Fold change vs veh, PPP3R1 / RFU, PIK3R1 / Fold change vs veh, PIK3R1 / RFU, HNRNPA1 / Fold change vs veh, HNRNPA1 / RFU, RNF170 / Fold change vs veh, RNF170 / RFU, ZNF28 / Fold change vs veh, ZNF28 / RFU, RNGTT / Fold change vs veh, RNGTT / RFU, OGT / Fold change vs veh, OGT / RFU, BRD1 / Fold change vs veh, BRD1 / RFU, MARS / Fold change vs veh, MARS / RFU, ZNF655 / Fold change vs veh, ZNF655 / RFU, FAHD1 / Fold change vs veh, FAHD1 / RFU, BDP1 / Fold change vs veh, BDP1 / RFU, LRRCC1 / Fold change vs veh, LRRCC1 / RFU, ARID1A / Fold change vs veh, ARID1A / RFU, ZNF146 / Fold change vs veh, ZNF146 / RFU, ZNF330 / Fold change vs veh, ZNF330 / RFU, GPN3 / Fold change vs veh, GPN3 / RFU, C9orf123 / Fold change vs veh, C9orf123 / RFU, N4BP2L2 / Fold change vs veh, N4BP2L2 / RFU, ARFIP1 / Fold change vs veh, ARFIP1 / RFU, FAM179B / Fold change vs veh, FAM179B / RFU, BCL10 / Fold change vs veh, BCL10 / RFU, UHRF1BP1L / Fold change vs veh, UHRF1BP1L / RFU, BET1 / Fold change vs veh, BET1 / RFU, CNOT2 / Fold change vs veh, CNOT2 / RFU, ZNF268 / Fold change vs veh, ZNF268 / Fold change vs veh, ZNF507 / RFU, DGCR2 / Fold change vs veh, DGCR2 / RFU, WDSUB1 / Fold change vs veh, WDSUB1 / Fold change vs veh, HSP90B1 /// MIR3652 / RFU, ADSS / Fold change vs veh, ADSS / RFU, GK / Fold change vs veh, GK / RFU, ZNF148 / Fold change vs veh, ZNF148 / RFU, TAF9 / Fold change vs veh, TAF9 / RFU, SLC1A5 / Fold change vs veh, SLC1A5 / RFU, SLMO2 / Fold change vs veh, SLMO2 / RFU, ABCC4 / Fold change vs veh, ABCC4 / RFU, LOC101060439 /// RAP1B / Fold change vs veh, LOC101060439 /// RAP1B / RFU, RFX7 / Fold change vs veh, RFX7 / RFU, GTPBP10 / Fold change vs veh, GTPBP10 / RFU, CNEP1R1 / Fold change vs veh, CNEP1R1 / RFU, BIVM-ERCC5 /// ERCC5 / Fold change vs veh, BIVM-ERCC5 /// ERCC5 / RFU, ILF3 / Fold change vs veh, ILF3 / RFU 11762660_at / Fold change /veh 11762660_at / RFU VCAN (11757783_s_at) / Fold change /veh VCAN (11757783_s_at) / RFU DDX43 (11728927_at) / Fold change /veh DDX43 (11728927_at) / RFU KRT8 (11758188_x_at) / Fold change /veh KRT8 (11758188_x_at) / RFU NKD1 (11759106_at) / Fold change /veh NKD1 (11759106_at) / RFU SRD5A1 (11742802_a_at) / Fold change /veh SRD5A1 (11742802_a_at) / RFU TPSAB1 /// TPSB2 (11721975_s_at) / Fold change /veh TPSAB1 /// TPSB2 (11721975_s_at) / RFU GSTM3 (11746129_a_at) / Fold change /veh GSTM3 (11746129_a_at) / RFU IL23R (11737362_x_at) / Fold change /veh IL23R (11737362_x_at) / RFU TMEM51 (11727254_a_at) / Fold change /veh TMEM51 (11727254_a_at) / RFU PIWIL2 (11732686_x_at) / Fold change /veh PIWIL2 (11732686_x_at) / RFU ORM1 (11744905_x_at) / Fold change /veh ORM1 (11744905_x_at) / RFU CCDC152 (11743942_at) / Fold change /veh CCDC152 (11743942_at) / RFU ECM1 (11717891_a_at) / Fold change /veh ECM1 (11717891_a_at) / RFU IL23R (11748794_a_at) / Fold change /veh IL23R (11748794_a_at) / RFU TNFAIP8L3 (11732012_x_at) / Fold change /veh TNFAIP8L3 (11732012_x_at) / RFU MBOAT4 (11741988_at) / Fold change /veh MBOAT4 (11741988_at) / RFU 11764193_at / Fold change /veh 11764193_at / RFU TMEM53 (11763286_at) / Fold change /veh TMEM53 (11763286_at) / RFU MAGEB2 (11727129_at) / Fold change /veh MAGEB2 (11727129_at) / RFU TMEM200A (11744735_a_at) / Fold change /veh TMEM200A (11744735_a_at) / RFU CCDC152 (11751479_a_at) / Fold change /veh CCDC152 (11751479_a_at) / RFU FAM211A (11726209_a_at) / Fold change /veh FAM211A (11726209_a_at) / RFU RGS16 (11746705_a_at) / Fold change /veh RGS16 (11746705_a_at) / RFU VCAN (11755009_s_at) / Fold change /veh VCAN (11755009_s_at) / RFU RHOB (11743442_s_at) / Fold change /veh RHOB (11743442_s_at) / RFU RGS16 (11720943_a_at) / Fold change /veh RGS16 (11720943_a_at) / RFU RGS16 (11720944_at) / Fold change /veh RGS16 (11720944_at) / RFU, VPS4B / Fold change vs veh, VPS4B / RFU, CREB1 / Fold change vs veh, CREB1 / RFU, DNAJC13 / Fold change vs veh, DNAJC13 / RFU, GNAQ / Fold change vs veh, GNAQ / RFU, CDK5R1 / Fold change vs veh, CDK5R1 / RFU, ZRANB3 / Fold change vs veh, ZRANB3 / RFU, CUL4A / Fold change vs veh, CUL4A / RFU, CCNY / Fold change vs veh, CCNY / RFU, UFL1 / Fold change vs veh, UFL1 / RFU, COG3 / Fold change vs veh, COG3 / RFU, DIAPH2 / Fold change vs veh, DIAPH2 / RFU, SKA2 / Fold change vs veh, SKA2 / RFU, AFF3 / Fold change vs veh, AFF3 / RFU, LMF1 / Fold change vs veh, LMF1 / RFU, IPO11 / Fold change vs veh, IPO11 / RFU, DFFB / Fold change vs veh, DFFB / RFU, FOXP1 / Fold change vs veh, FOXP1 / RFU, CARD8 / Fold change vs veh, CARD8 / RFU, STRN3 / Fold change vs veh, STRN3 / RFU, ADK / Fold change vs veh, ADK / RFU, RASSF2 / Fold change vs veh, RASSF2 / RFU, WIPF1 / Fold change vs veh, WIPF1 / RFU, LARP1B / Fold change vs veh, LARP1B / RFU, RASA1 / Fold change vs veh, RASA1 / RFU, RB1 / Fold change vs veh, RB1 / RFU, PPFIA1 / Fold change vs veh, PPFIA1 / RFU, MAT2A / Fold change vs veh, MAT2A / RFU, CCT5 / Fold change vs veh, CCT5 / RFU, WDR92 / Fold change vs veh, WDR92 / RFU, CUX1 / Fold change vs veh, CUX1 / RFU, TTC7A / Fold change vs veh, TTC7A / RFU, TMEM135 / Fold change vs veh, TMEM135 / RFU, DEPTOR / Fold change vs veh, DEPTOR / RFU, CPM / Fold change vs veh, CPM / RFU, DNAJB6 / Fold change vs veh, DNAJB6 / RFU, CACNA2D3 / Fold change vs veh, CACNA2D3 / RFU, DTX4 / Fold change vs veh, DTX4 / RFU, TFCP2 / Fold change vs veh, TFCP2 / RFU, GMCL1 /// GMCL1P1 / Fold change vs veh, GMCL1 /// GMCL1P1 / RFU, AEBP2 / Fold change vs veh, AEBP2 / RFU, SNHG1 /// SNORD22 /// SNORD25 /// SNORD26 /// SNORD27 /// SNORD28 /// SNORD29 /// SNORD31 / Fold change vs veh, SNHG1 /// SNORD22 /// SNORD25 /// SNORD26 /// SNORD27 /// SNORD28 /// SNORD29 /// SNORD31 / Fold change (Aza/veh), C12orf56 (ProbeSet 11735607_a_at) / Fold change (ACY-1035/veh), C12orf56 (ProbeSet 11735607_a_at) / Fold change (Aza/veh), FGFR1OP (ProbeSet 11751329_s_at) / Fold change (ACY-1035/veh), FGFR1OP (ProbeSet 11751329_s_at) / Fold change (Aza/veh), VPS36 (ProbeSet 11739960_a_at) / Fold change (ACY-1035/veh), VPS36 (ProbeSet 11739960_a_at) / RFU SYPL1 (11715823_x_at) / Fold change /veh SYPL1 (11715823_x_at) / RFU IGFBP7 (11715501_s_at) / Fold change /veh IGFBP7 (11715501_s_at) / RFU REEP3 (11722064_at) / Fold change /veh REEP3 (11722064_at) / RFU IGLL1 (11728026_x_at) / Fold change /veh IGLL1 (11728026_x_at): dose or concentration left out as unconfirmed
Conditions: MV-4-11 cells, 48 hours

Nc1ncn([C@@H]2O[C@H](CO)[C@@H](O)[C@H]2O)c(=O)n1 [azacitidine]
Fold change /veh PLEKHG5 (11743358_a_at): 1.07
